Legend:
KRas G12D = KRas G12D (Homo sapiens, UniProt P01116, G12D); experiment: KRas G12D Binding Assay (TR-FRET displacement of labeled tracer); design: corresponding to amino acids 1:169, produced at Array BioPharma; biotin (protein is biotinylated); conditions: TR-FRET displacement of Cy5 labelled tracer, biotinylated GDP-loaded KRAS G12D (aa 1:169), 60 minute incubation at 22° C.
Experimental: This Example illustrates that exemplary compounds of the present invention bind to KRas G12D and are capable of displacing a labeled tracer ligand occupying the KRas G12D binding site.
The ability of a compound to bind to KRAS G12D was measured using a TR-FRET displacement assay. Biotinylated GDP-loaded recombinant human KRAS G12D (corresponding to amino acids 1:169, produced at Array BioPharma) was incubated with a custom-made Cy5 labelled tracer, europium labelled streptavidin and compound (2% DMSO final) in buffer (50 mM HEPES [pH 7.5], 5 mM MgCl2, 0.005% Tween-20 & 1 mM DTT). After a 60 minute incubation at 22° C., the reaction was measured using a PerkinElmer EnVision multimode plate reader via TR-FRET dual wavelength detection, and the percent of control (POC) calculated using a ratiometric emission factor. […] The POC values were fit to a 4-parameter logistic curve and the IC50 value was determined as the concentration where the curve crosses 50 POC.

[1] = test system: KRas G12D-mediated Phosphorylation of ERK; experiment: Inhibition of KRas G12D-mediated Phosphorylation of ERK in AGS cells; assay type: cell-based; conditions: Homo sapiens; AGS cells expressing G12D, 3 hours, phospho-ERK normalized to GAPDH
Experimental: AGS cells (ATCC CRL-1739) expressing G12D were grown in DMEM medium supplemented with 10% fetal bovine serum, 10 mM HEPES, and Penicillin/Streptomycin. Cells were plated in tissue culture treated 96 well plates at a density of 40,000 cells/well and allowed to attach for 12-14 hours. Diluted compounds were then added in a final concentration of 0.5% DMSO. After 3 hours, the medium was removed, 150 μl of 4.0% formaldehyde was added and the plates incubated at room temperature for 20 minutes. The plates were washed with PBS, and permeabilized with 150 μL of ice cold 100% methanol for 10 minutes. Non-specific antibody binding to the plates was blocked using 100 μL Licor blocking buffer (Li-Cor Biotechnology, Lincoln NE) for 1 hour at room temperature.
The amount of phospho-ERK was determined using an antibody specific for the phosphorylated form of ERK and compared to the amount of GAPDH. Primary antibodies used for the detection were added as follows: Phospho-ERK(Cell Signaling cs-9101) diluted 1:500 and GAPDH(Millipore MAB374) diluted 1:5000 in Licor block+0.05% Tween 20. The plates were incubated for 2 hours at room temperature. The plates were washed with PBS+0.05% Tween 20.
Secondary antibodies used to visualize primary antibodies were added as follows: Anti-rabbit-680 diluted 1:1000 and Anti-mouse-800 diluted 1:1000 both in Licor block+0.05% Tween20, and were incubated for 1 hour at room temperature. The plates were washed with PBS+0.05% Tween 20. A 100 μl aliquot of PBS was added to each well and the plates were read on a Li-Cor Odyssey CLX plate reader.
The phospho-ERK(Thr202/Tyr204 signal was normalized to the GAPDH signal for each well and percent of DMSO control values were calculated. IC50 values were generated using a 4-parameter fit of the dose response curve.

Sequence of KRas G12D (P01116 1-169 isoform P01116-2 G12D): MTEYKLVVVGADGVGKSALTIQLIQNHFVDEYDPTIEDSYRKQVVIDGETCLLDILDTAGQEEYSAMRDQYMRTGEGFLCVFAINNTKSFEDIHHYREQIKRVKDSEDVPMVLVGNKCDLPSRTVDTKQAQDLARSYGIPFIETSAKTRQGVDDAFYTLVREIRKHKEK

Row | Structure (SMILES) | IC50 (KRas G12D) [nM] | IC50 [1] [nM]
1 | CCc1cccc2cc(O)cc(N3CCc4c(nc(OCC56CCCN5C(CF)CC6)nc4N4CC5CCC(C4)N5)C3)c12 (mixture of isomers) [Example 23, 4-(4-((1R,5S)-3,8-diazabicyclo[3.2.1]octan-3-yl)-2-((3-(fluoromethyl)tetrahydro-1H-pyrrolizin-7a(5H)-yl)methoxy)-5,8-dihydropyrido[3,4-d]pyrimidin-7(6H)-yl)-5-ethylnaphthalen-2-ol (mixture or isomers)] | 1.1 | 119
2 | CCc1cccc2cc(O)cc(N3CCc4c(nc(OCC56CCCN5C[C@H](F)C6)nc4N4CC5CCC(C4)N5)C3)c12 (mixture of isomers) [Example 6, 4-(4-((1R,5S)-3,8-diazabicyclo[3.2.1]octan-3-yl)-2-((2-fluorotetrahydro-1H-pyrrolizin-7a(5H)-yl)methoxy)-5,8-dihydropyrido[3,4-d]pyrimidin-7(6H)-yl)-5-ethylnaphthalen-2-ol (racemic, trans)] | 0.8 | 12
3 | CCc1cccc2cccc(N3CCc4c(nc(OCC56CCCN5CC(F)C6)nc4N4C[C@H]5CC[C@@H](C4)N5)C3)c12 (mixture of isomers) [Example 9, 4-((1R,5S)-3,8-diazabicyclo[3.2.1]octan-3-yl)-7-(8-ethylnaphthalen-1-yl)-2-((2-fluorotetrahydro-1H-pyrrolizin-7a(5H)-yl)methoxy)-5,6,7,8-tetrahydropyrido[3,4-d]pyrimidine (racemic, trans)] | 3.1 | 1660
4 | F[C@H]1CN2CCCC2(COc2nc3c(c(N4CC5CCC(C4)N5)n2)CCN(c2cccc4cccc(C5CC5)c24)C3)C1 (mixture of isomers) [Example 11] | 19.8 | > 16700
5 | F[C@H]1CN2CCCC2(COc2nc3c(c(N4CC5CCC(C4)N5)n2)CCN(c2cccc(Cl)c2C2CC2)C3)C1 (mixture of isomers) [Example 17, 4-((1R,5S)-3,8-diazabicyclo[3.2.1]octan-3-yl)-7-(3-chloro-2-cyclopropylphenyl)-2-((2-fluorotetrahydro-1H-pyrrolizin-7a(5H)-yl)methoxy)-5,6,7,8-tetrahydropyrido[3,4-d]pyrimidine (racemic, trans)] | 29.5 | > 16700
6 | CCc1c(F)ccc2cccc(N3CCc4c(nc(OCC56CCCN5C[C@H](F)C6)nc4N4CC5CCC(C4)N5)C3)c12 (mixture of isomers) [Example 20, 4-((1R,5S)-3,8-diazabicyclo[3.2.1]octan-3-yl)-7-(8-ethyl-7-fluoronaphthalen-1-yl)-2-((2-fluorotetrahydro-1H-pyrrolizin-7a(5H)-yl)methoxy)-5,6,7,8-tetrahydropyrido[3,4-d]pyrimidine (racemic, trans)] | 2.8 | 539
7 | F[C@H]1CN2CCCC2(COc2nc3c(c(N4CC5CCC(C4)N5)n2)CCN(c2cccc4cccc(Cl)c24)C3)C1 (mixture of isomers) [Example 46, 4-((1R,5S)-3,8-diazabicyclo[3.2.1]octan-3-yl)-7-(8-chloronaphthalen-1-yl)-2-((2-fluorotetrahydro-1H-pyrrolizin-7a(5H)-yl)methoxy)-5,6,7,8-tetrahydropyrido[3,4-d]pyrimidine] | 4.4 | 4570
8 | Oc1cc(N2CCc3c(nc(OCC45CCCN4C[C@H](F)C5)nc3N3CC4CCC(C3)N4)C2)c2ccccc2c1 (mixture of isomers) [Example 47, 4-(4-((1R,5S)-3,8-diazabicyclo[3.2.1]octan-3-yl)-2-((2-fluorotetrahydro-1H-pyrrolizin-7a(5H)-yl)methoxy)-5,8-dihydropyrido[3,4-d]pyrimidin-7(6H)-yl)naphthalen-2-ol] | 1 | 537
9 | F[C@H]1CN2CCCC2(COc2nc3c(c(N4CC5CCC(C4)N5)n2)CCN(c2cccc(Cl)c2C(F)(F)F)C3)C1 (mixture of isomers) [Example 48, 4-((1R,5S)-3,8-diazabicyclo[3.2.1]octan-3-yl)-7-(3-chloro-2-(trifluoromethyl)phenyl)-2-((2-fluorotetrahydro-1H-pyrrolizin-7a(5H)-yl)methoxy)-5,6,7,8-tetrahydropyrido[3,4-d]pyrimidine] | 5.5 | 5220
10 | Oc1cc(N2CCc3c(nc(OCC45CCCN4C[C@H](F)C5)nc3N3CC4CCC(C3)N4)C2)c2c(Cl)cccc2c1 (mixture of isomers) [Example 49, 4-(4-((1R,5S)-3,8-diazabicyclo[3.2.1]octan-3-yl)-2-((2-fluorotetrahydro-1H-pyrrolizin-7a(5H)-yl)methoxy)-5,8-dihydropyrido[3,4-d]pyrimidin-7(6H)-yl)-5-chloronaphthalen-2-ol] | 0.5 | 77
11 | Cc1cccc2cccc(N3CCc4c(nc(OCC56CCCN5C[C@H](F)C6)nc4N4CC5CCC(C4)N5)C3)c12 (mixture of isomers) [Example 50, 4-((1R,5S)-3,8-diazabicyclo[3.2.1]octan-3-yl)-2-((2-fluorotetrahydro-1H-pyrrolizin-7a(5H)-yl)methoxy)-7-(8-methylnaphthalen-1-yl)-5,6,7,8-tetrahydropyrido[3,4-d]pyrimidine] | 7.1 | > 16700
12 | F[C@H]1CN2CCCC2(COc2nc3c(c(N4CC5CCC(C4)N5)n2)CCN(c2cccc4cccc(C(F)(F)F)c24)C3)C1 (mixture of isomers) [Example 51, 4-((1R,5S)-3,8-diazabicyclo[3.2.1]octan-3-yl)-2-((2-fluorotetrahydro-1H-pyrrolizin-7a(5H)-yl)methoxy)-7-(8-(trifluoromethyl)naphthalen-1-yl)-5,6,7,8-tetrahydropyrido[3,4-d]pyrimidine] | 16.9 | > 16700
13 | CCc1cccc2cccc(N3CCc4c(nc(OCC56CCCN5C(COC(=O)N(CC)CC)CC6)nc4N4C[C@H]5CC[C@@H](C4)N5)C3)c12 (mixture of isomers) [Example 66, (7a-(((4-((1R,5S)-3,8-diazabicyclo[3.2.1]octan-3-yl)-7-(8-ethylnaphthalen-1-yl)-5,6,7,8-tetrahydropyrido[3,4-d]pyrimidin-2-yl)oxy)methyl)hexahydro-1H-pyrrolizin-3-yl)methyl diethylcarbamate] | 4.6 | 2210
14 | CCc1cccc2cccc(N3CCc4c(nc(OCC56CCCN5C(COC(=O)N5CCS(=O)(=O)CC5)CC6)nc4N4C[C@H]5CC[C@@H](C4)N5)C3)c12 (mixture of isomers) [Example 67, (7a-(((4-((1R,5S)-3,8-diazabicyclo[3.2.1]octan-3-yl)-7-(8-ethylnaphthalen-1-yl)-5,6,7,8-tetrahydropyrido[3,4-d]pyrimidin-2-yl)oxy)methyl)hexahydro-1H-pyrrolizin-3-yl)methyl thiomorpholine-4-carboxylate 1,1-dioxide] | 1.5 | 150
15 | CCc1cccc2cccc(N3CCc4c(nc(OCC56CCCN5C(COC(=O)N(C)OC)CC6)nc4N4C[C@H]5CC[C@@H](C4)N5)C3)c12 (mixture of isomers) [Example 68, (7a-(((4-((1R,5S)-3,8-diazabicyclo[3.2.1]octan-3-yl)-7-(8-ethylnaphthalen-1-yl)-5,6,7,8-tetrahydropyrido[3,4-d]pyrimidin-2-yl)oxy)methyl)hexahydro-1H-pyrrolizin-3-yl)methyl methoxy(methyl)carbamate] | 5.9 | 1330
16 | CCc1c(F)ccc2cc(O)cc(N3CCc4c(nc(OC[C@@]56CCCN5C[C@H](F)C6)nc4N4C[C@H]5CC[C@@H](C4)N5)C3)c12 [Example 118, 4-(4-((1R,5S)-3,8-diazabicyclo[3.2.1]octan-3-yl)-2-(((2R,7aS)-2-fluorohexahydro-1H-pyrrolizin-7a-yl)methoxy)-5,6-dihydropyrido[3,4-d]pyrimidin-7(8H)-yl)-5-ethyl-6-fluoronaphthalen-2-ol] | 2.1 | 
17 | CCc1cccc2cccc(N3CCc4c(nc(OC[C@@]56CCCN5C[C@H](F)C6)nc4[C@@H]4C[C@H]5CC[C@@H](C4)N5)C3)c12 [Example 122, 4-((1R,3s,5S)-8-azabicyclo[3.2.1]octan-3-yl)-7-(8-ethylnaphthalen-1-yl)-2-(((2R,7aS)-2-fluorotetrahydro-1H-pyrrolizin-7a(5H)-yl)methoxy)-5,6,7,8-tetrahydropyrido[3,4-d]pyrimidine] | 234 | 
